Legend:
[1] = tested on: German cockroaches (Blattella germanica); test: Repellency test against German cockroaches with impregnated filter paper triangular pillar; type: in vivo; conditions: 24 hours later, dosage 833 mg/m^2; for No. of cockroaches (German cockroaches in the triangular pillar): test repeated twice
Method: A triangular pillar (3 cm-equilateral triangle of opening, 6 cm in length) was prepared with filter paper, and the acetone solution (0.9 ml) prepared according to Production example 2 was impregnated with the triangular pillar uniformly and air-dried for 5 to 10 minutes.
In a 650 cc volume plastic cup, said triangular pillar was placed horizontally, German cockroaches (Blattella germanica, 5 males and 5 females) were placed in said plastic cup, covered with nylon gauze, and then observed the number of German cockroaches in the triangular pillar 24 hours later. The test was repeated twice.
Further, the same procedure was performed using a triangular pillar of filter paper impregnated acetone without active ingredient, and the number of German cockroaches in the triangular pillar 24 hours later was counted. […] [formula]
Furthermore, the same procedure was performed using acetone solution prepared according to Production example 2, provided that DEET or MGK874 was used in place of Compound [A] for comparison.

[2] = tested on: yellow fever mosquitoes (Aedes aegypti); test: Repellency test against yellow fever mosquitoes on treated chick abdomen; type: in vivo; conditions: dosage 3 g/m^2, ethanol solution on chick abdomen
Method: Fifty adult yellow fever mosquitoes (Aedes aegypti, approximately equal number of female and male) which were about 3 weeks old after emergence were released in a cage (22 cm×22 cm×30 cm, made of stainless steel and nylon gauge).
A chick whose abdominal feathers had been removed with haircutter was fixed on a wood board (7 cm×15 cm) having a hole of 2.5 cm×4 cm so that its abdominal skin was exposed. Next, the ethanol solution (90 μl) prepared according to Production example 1 was treated on the exposed area of the chick. The chick treated the solution on its abdomen was put on the cage, and the treated abdomen was exposed to the cage just after treating and after 3 hours from treating. After 1, 2 and 4 minutes from putting the chick, the number of yellow fever mosquitoes on the abdomen was counted and summed up. The test was repeated twice.
Further, the same procedure was performed using a chick treated ethanol without active ingredient on its abdomen, and the number of yellow fever mosquitoes on the abdomen was counted. […] [formula]
Furthermore, the same procedure was performed using ethanol solution (90 μl) prepared according to Production example 1, provided that DEET was used in place of Compound [A] for comparison.

Row | Structure (SMILES) | Repellency (%) [1] [%] | No. of cockroaches (German cockroaches in the triangular pillar) [1] | No. of mosquitoes (sum of yellow fever mosquitoes on the abdomen of the chick after 1, 2 and 4 minutes) ([2]; After 3 hours) | Repellency (%) ([2]; After 3 hours) | No. of mosquitoes (sum of yellow fever mosquitoes on the abdomen of the chick after 1, 2 and 4 minutes) ([2]; Immediately after treating) | Repellency (%) ([2]; Immediately after treating)
1 | Cc1cc(O)c(C(=O)CCC(C)C)c(=O)o1 [Compound [A], 4-hydroxy-6-methyl-3-(4-methylpentanoyl)-2-pyrone] | 90 | 2 | 0 | 100 | 0 | 100
2 | CCCCCCCCSCCO [MGK874, 2-(octylthio)ethanol] | 15 | 17 |  |  |  | 
3 | CCN(CC)C(=O)c1cccc(C)c1 [DEET, N,N-diethyl-m-toluamide] | 0 | 20 | 3 | 96.5 | 0 | 100

Source: patent US6448289B1, “Method for repelling arthropods” (priority 2000, dated 2002)
